Like-named read-outs stand apart in the source and are kept apart here.

Assay [1] addresses human CB2 receptor (hCB2) (Homo sapiens, UniProt P34972). The assay is described as follows: cAMP assay at human CB2 receptor. It counts as cell-based. The note with it: hCB2R, maximum measurable range 30 μM. As for the experimental part:
(§1) TR-FRET was measured using a 330-380 nm excitation filter, 615 nm and 665 nm emission filters, dichroic minor 380 nm and Z=10 mm. cAMP concentrations in each well were back-calculated from a cAMP standard curve run concurrently during each assay. Each plate contained 16 wells of forskolin stimulated cells and 16 wells of forskolin plus 1 μM CP55,940-treated cells. Concentrations of cAMP were expressed as a percent of the difference of these two groups of wells.

For assay [2], the target named is human CB1 receptor (hCB1) (Homo sapiens, UniProt P21554). Briefly: cAMP assay at human CB1 receptor. The note with it: hCB1R; maximum measurable range 30 μM; read-out: EC50 (Potency at Human CB1 determined by cAMP Assay). It counts as cell-based. The method, then: The ability of each of the compounds to act as agonists or inverse agonists at human CB2 and CB1 receptors (hCB2, hCB1, respectively) and at the rat CB2 receptor (rCB2) was determined by measuring changes in intracellular cyclic AMP (cAMP) levels as described in U.S. Pat. No. 7,517,874.
as §1, with “wells. Concentration-response data including EC50 (the concentration of compound producing 50% of the maximal response) and intrinsic activity (the percent maximal activation compared to full activation by CP55, 940) were determined using a four-parameter non-linear regression algorithm (CambridgeSoft Bioassay).” for “wells.”
On the technique in general: Changes in cAMP serve as a functional read-out for many G protein-coupled receptors.

The mark [3] stands for this setting: read-out: EC50 (Potency at Human CB2 determined by cAMP Assay).
The mark [4] stands for this setting: EC50 (Potency at Human CB2 determined by cAMP Assay).

Chain of human CB2 receptor (hCB2) (P34972 whole entry): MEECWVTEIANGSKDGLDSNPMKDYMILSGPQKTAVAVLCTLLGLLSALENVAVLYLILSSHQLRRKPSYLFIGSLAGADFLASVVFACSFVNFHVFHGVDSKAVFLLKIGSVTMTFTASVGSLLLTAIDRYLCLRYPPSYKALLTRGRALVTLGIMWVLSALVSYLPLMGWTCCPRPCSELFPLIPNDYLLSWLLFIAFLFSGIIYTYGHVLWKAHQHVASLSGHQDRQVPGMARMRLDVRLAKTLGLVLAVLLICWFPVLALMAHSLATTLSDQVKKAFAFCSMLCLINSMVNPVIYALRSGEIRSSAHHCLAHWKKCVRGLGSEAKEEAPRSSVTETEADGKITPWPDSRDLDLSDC
Chain of human CB1 receptor (hCB1) (P21554 whole entry): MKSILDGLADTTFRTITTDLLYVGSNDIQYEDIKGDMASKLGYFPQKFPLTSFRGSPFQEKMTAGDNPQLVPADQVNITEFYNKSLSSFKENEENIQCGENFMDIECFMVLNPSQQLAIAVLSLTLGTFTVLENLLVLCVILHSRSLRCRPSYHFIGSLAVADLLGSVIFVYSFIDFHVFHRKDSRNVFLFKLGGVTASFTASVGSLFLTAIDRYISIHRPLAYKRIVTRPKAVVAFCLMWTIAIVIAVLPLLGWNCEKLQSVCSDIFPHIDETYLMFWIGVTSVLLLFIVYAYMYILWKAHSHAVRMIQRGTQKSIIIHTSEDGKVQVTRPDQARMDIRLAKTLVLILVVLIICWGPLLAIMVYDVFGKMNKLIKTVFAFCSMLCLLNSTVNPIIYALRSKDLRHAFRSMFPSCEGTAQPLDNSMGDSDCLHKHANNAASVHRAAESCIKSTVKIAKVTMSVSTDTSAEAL

On to `CN1CCc2c(c(-c3cc(F)c(F)cc3F)nn2C(=O)N[C@H](C(=O)O)C(C)(C)C)C1` [Compound 71, (S)-3,3-dimethyl-2-(5-methyl-3-(2,4,5-trifluorophenyl)-4,5,6,7-tetrahydro-1H-pyrazolo[4,3-c]pyridine-1-carboxamido)butanoic acid], for which the EC50 in assay [1] (setting [3]) and in assay [2] was more than 30000 nM in each case.

Consider `CNC(=O)[C@@H](NC(=O)n1nc(-c2ccc(F)c(F)c2)c2c1CCC(NC)C2)C(C)(C)C` (stereo partly drawn) [Compound 68, 3-(3,4-difluorophenyl)-N—((S)-3,3-dimethyl-1-(methylamino)-1-oxobutan-2-yl)-5-(methylamino)-4,5,6,7-tetrahydro-1H-indazole-1-carboxamide], for which the concentration for a half-maximal effect (EC50) in assay [1] (setting [4]) and in assay [2] was less than 1000 nM in each case.

As for `CC(C)(C)[C@@H](CO)NC(=O)n1nc(-c2cc(F)c(F)cc2F)c2c1CCOC2` [Compound 33, (S)—N-(1-hydroxy-3,3-dimethylbutan-2-yl)-3-(2,4,5-trifluorophenyl)-6,7-dihydropyrano[4,3-c]pyrazole-1(4H)-carboxamide], the EC50 in assay [1] (setting [4]) and in assay [2] was less than 1000 nM in each case.

Regarding `CN1CCc2c(c(-c3ccc(F)c(F)c3)nn2C(=O)NC(C)(C)C)C1` [Compound 46, N-tert-butyl-3-(3,4-difluorophenyl)-5-methyl-4,5,6,7-tetrahydro-1H-pyrazolo[4,3-c]pyridine-1-carboxamide], the results for the EC50 in assay [1] (setting [3]) and in assay [2] were more than 1000 nM and less than 1000 nM, respectively.

As for `CNC(=O)[C@@H](NC(=O)n1nc(C(C)(C)C)c2c1CCN(C)C2)C(C)(C)C` [Compound 44, (S)-3-tert-butyl-N-(3,3-dimethyl-1-(methylamino)-1-oxo-butan-2-yl)-5-methyl-4,5,6,7-tetrahydro-1H-pyrazolo[4,3-c]pyridine-1-carboxamide], the results for the concentration for a half-maximal effect (EC50) in assay [1] (setting [4]) and in assay [2] were less than 1000 nM and more than 1000 nM, respectively.

As for `CN1CCN(C(=O)[C@@H](NC(=O)n2nc(-c3cc(F)c(F)cc3F)c3c2CCOC3)C(C)(C)C)CC1` [Compound 32, (S)—N-(3,3-dimethyl-1-(4-methylpiperazin-1-yl)-1-oxobutan-2-yl)-3-(2,4,5-trifluorophenyl)-6,7-dihydropyrano[4,3-c]pyrazole-1(4H)-carboxamide], the concentration for a half-maximal effect (EC50) in assay [1] (setting [4]) and in assay [2] was less than 1000 nM throughout.

On to `CCN1CCc2c(c(-c3cc(F)ccc3F)nn2C(=O)N[C@H](C(=O)NC)C(C)(C)C)C1` [Compound 65, (S)-3-(2,5-difluorophenyl)-N-(3,3-dimethyl-1-(methylamino)-1-oxobutan-2-yl)-5-ethyl-4,5,6,7-tetrahydro-1H-pyrazolo[4,3-c]pyridine-1-carboxamide], for which the concentration giving a half-maximal response (EC50) in assay [1] (setting [4]) and in assay [2] was less than 1000 nM each time.

As to `CN1CCc2c(c(-c3cc(F)ccc3F)nn2C(=O)N[C@H](C(=O)O)C(C)(C)C)C1` [Compound 81, (S)-2-(3-(2,5-difluorophenyl)-5-methyl-4,5,6,7-tetrahydro-1H-pyrazolo[4,3-c]pyridine-1-carboxamido)-3,3-dimethylbutanoic acid], the EC50 in assay [1] (setting [3]) and in assay [2] was more than 30000 nM each time.

Consider `CNC(=O)[C@@H](NC(=O)n1nc(-c2ccc(F)c(F)c2)c2c1CCCC2)C(C)(C)C` [Compound 29, (S)-3-(3,4-difluorophenyl)-N-(3,3-dimethyl-1-(methylamino)-1-oxobutan-2-yl)-4,5,6,7-tetrahydro-1H-indazole-1-carboxamide], for which the 50% effective concentration (EC50) in assay [1] (setting [4]) and in assay [2] was less than 1000 nM in each case.

Consider `CNC(=O)[C@@H](NC(=O)n1nc(-c2ccc(F)c(F)c2)c2c1CCC(O)C2)C(C)(C)C` (mixture of isomers) [Compound 67, 3-(3,4-difluorophenyl)-N—((S)-3,3-dimethyl-1-(methylamino)-1-oxobutan-2-yl)-5-hydroxy-4,5,6,7-tetrahydro-1H-indazole-1-carboxamide], for which the concentration giving a half-maximal response (EC50) in assay [1] (setting [4]) and in assay [2] was less than 1000 nM each time.

On to `CNC(=O)[C@@H](NC(=O)n1nc(-c2cc(F)c(F)cc2F)c2c1CCCN2C)C(C)(C)C` [Compound 39, (S)—N-(3,3-dimethyl-1-(methylamino)-1-oxobutan-2-yl)-4-methyl-3-(2,4,5-trifluorophenyl)-4,5,6,7-tetrahydro-1H-pyrazolo[4,3-b]pyridine-1-carboxamide], for which the EC50 in assay [1] (setting [4]) and in assay [2] was less than 1000 nM throughout.

With `CNC(=O)[C@@H](NC(=O)n1nc(-c2ccc(F)c(F)c2)c2c1CCN(C)C2)C(C)(C)C` [Compound 42, (S)-3-(3,4-difluorophenyl)-N-(3,3-dimethyl-1-(methylamino)-1-oxobutan-2-yl)-5-methyl-4,5,6,7-tetrahydro-1H-pyrazolo[4,3-c]pyridine-1-carboxamide], the half-maximal effective concentration (EC50) in assay [1] (setting [4]) and in assay [2] was less than 1000 nM throughout.

`CNC(=O)[C@@H](NC(=O)n1nc(-c2ccc(F)c(F)c2)c2c1CCCN2C)C(C)(C)C` [Compound 62, (S)-3-(3,4-difluorophenyl)-N-(3,3-dimethyl-1-(methylamino)-1-oxobutan-2-yl)-4-methyl-4,5,6,7-tetrahydro-1H-pyrazolo[4,3-b]pyridine-1-carboxamide]: the concentration giving a half-maximal response (EC50) in assay [1] (setting [4]) and in assay [2] was less than 1000 nM each time.

As for `CNC(=O)[C@@H](NC(=O)n1nc(-c2ccc(F)cc2)c2c1CCNC2)C(C)(C)C` [Compound 53, (S)—N-(3,3-dimethyl-1-(methylamino)-1-oxobutan-2-yl)-3-(4-fluorophenyl)-4,5,6,7-tetrahydro-1H-pyrazolo[4,3-c]pyridine-1-carboxamide], the EC50 in assay [1] (setting [4]) and in assay [2] was less than 1000 nM each time.

Turning to `CN1CCc2c(c(-c3cc(F)c(F)cc3F)nn2C(=O)N[C@H](C(=O)N2CCC(C(N)=O)CC2)C(C)(C)C)C1` [Compound 79, (S)—N-(1-(4-carbamoylpiperidin-1-yl)-3,3-dimethyl-1-oxobutan-2-yl)-5-methyl-3-(2,4,5-trifluorophenyl)-4,5,6,7-tetrahydro-1H-pyrazolo[4,3-c]pyridine-1-carboxamide], the EC50 in assay [1] (setting [3]) is more than 1000 nM; in assay [2] it was less than 1000 nM.

For the compound `CC(C)(C)c1cc(NC(=O)n2nc(-c3ccc(F)c(F)c3)c3c2CCOC3)no1` [Compound 57], the EC50 in assay [1] (setting [3]) was less than 1000 nM; in assay [2], more than 1000 nM.

With `CC(C)(C)c1csc(NC(=O)n2nc(-c3ccc(F)c(F)c3)c3c2CCOC3)n1` [Compound 56, N-(4-tert-butylthiazol-2-yl)-3-(3,4-difluorophenyl)-6,7-dihydropyrano[4,3-c]pyrazole-1(4H)-carboxamide], the EC50 in assay [1] (setting [3]) and in assay [2] was less than 1000 nM in each case.

On to `CN1CCc2c(c(-c3ccc(F)c(F)c3)nn2C(=O)N[C@H](CO)C(C)(C)C)C1` [Compound 48, (S)-3-(3,4-difluorophenyl)-N-(1-hydroxy-3,3-dimethylbutan-2-yl)-5-methyl-4,5,6,7-tetrahydro-1H-pyrazolo[4,3-c]pyridine-1-carboxamide], for which the half-maximal effective concentration (EC50) in assay [1] (setting [4]) is less than 1000 nM; in assay [2] it was more than 1000 nM.

Consider `CCOC(=O)CN1CCc2c(c(-c3cc(F)c(F)cc3F)nn2C(=O)N[C@H](C(=O)NC)C(C)(C)C)C1` [Compound 83, (S)-ethyl 2-(1-(3,3-dimethyl-1-(methylamino)-1-oxobutan-2-ylcarbamoyl)-3-(2,4,5-trifluorophenyl)-6,7-dihydro-1H-pyrazolo[4,3-c]pyridin-5(4H)-yl)acetate], for which the figures for the EC50 in assay [1] (setting [3]) and in assay [2] were more than 1000 nM and less than 1000 nM, respectively.

As a reminder, the EC50 is the concentration needed to bring the measured effect to its halfway point.

The values above are taken from patent US7741350B1 (Cara Therapeutics, Inc., priority 2009, dated 2010).
